Measurements as given in publication PMC11375786, “Induction of Paraptotic Cell Death in Cancer Cells by Triptycene–Peptide Hybrids and the Revised Mechanism of Paraptosis II” (Biochemistry, 2024).
Like-named read-outs stand apart in the source and are kept apart here. Numbered stars: 1 amine (or outer) side, 2 acyl side, 3 side chain; on linkers, the order of the positions; unused ones are H or OH. Bridge positions count the residues as written; N and C are the ends. Square brackets hold non-standard residues; d marks the D form. Peptide text beside a SMILES is read from it. I, II: the chains in the order shown. X1 = O=C(COc1cccc2c1C1c3c(OCC(=O)NCCCCCCCCN[*:2])cccc3C2c2cccc(OCC(=O)NCCCCCCCCN[*:3])c21)NCCCCCCCCN[*:1]; Cha = N[C@@H](CC1CCCCC1)C(=O)O

Columns and labels:
A549 cells [1] = assay: cells
Experimental: (§1) HeLa S3 cells (human cervical carcinoma) were cultured in Minimum essential medium (MEM) containing 10% FBS, penicillin, and streptomycin. A549 cells (human lung carcinoma) and IMR90 cells (human fetal lung fibroblast) were cultured in Dulbecco’s modified Eagle’s medium (DMEM) with 10% FBS, penicillin, and streptomycin. All cells were cultured at 37 °C under a humidified atmosphere containing 5% CO2.
(§2) Jurkat, HeLa-S3, A549 cells (2.0 × 10^5 cells/mL) and IMR90 cells (1.0 × 10^5 cells/mL) were incubated in the presence of 3–7 for 1 h, and etoposide, cisplatin and celastrol for 24 h (50 μL) in cell culture medium under CO2 at 37 °C in 96-well plates (BD Falcon). MTT reagent (5 mg/mL) in PBS (10 μL) was then added to the cells. After incubation at 37 °C for 4 h, a formazan lysis solution (10% sodium dodecyl sulfate (SDS) in 0.01 N HCl) (100 μL) was added and the resultant solution was incubated overnight under the same conditions, which was followed by measurement of the absorbance at 570 nm using a microplate reader (ARVO, PerkinElmer).

HeLa-S3 cells [2] = assay: cells; conditions: read-out: EC50 against HeLa-S3 cells
Experimental: as §1, §2

IMR90 cells = assay: cells; conditions: read-out: EC50 against IMR90 cells
Experimental: as §1, §2

Jurkat cells [3] = assay: cells; conditions: read-out: EC50 against Jurkat cells
Experimental: as §1, §2

[4] = system: Ca^2+ concentrations in mitochondria and cytosol in HeLa-S3 cells; assay: Rhod-2/AM and Rhod-4/AM emission (mitochondrial and cytosolic Ca2+) in HeLa-S3 cells; format: cell-based, human; conditions: 4 5 μM 1 h; for Emission of Rhod-2/AM (mitochondrial Ca2+) in HeLa-S3 cells: celastrol or cisplatin 100 μM 2–6 h
Experimental: (§3) Jurkat, HeLa-S3, and A549 cells (2.0 × 10^5 cells) were preincubated with Rhod-2/AM (final concentration = 5 μM) or Rhod-4/AM (final concentration = 5 μM) in medium under 5% CO2 at 37 °C for 30 min and then treated with 4 (final concentration = 2.5, 5, or 10 μM) for 0, 15, 30, 45, and 60 min. HeLa-S3 and A549 cells were detached by accutase, immediately after which the cells were suspended in 300 μL of cell culture medium and then analyzed on a flow cytometer (FACS Calibur cytometer, Becton), and the data were analyzed using the FlowJo software (FlowJo, LCC).
(§4) Jurkat, HeLa-S3, A549, and IMR90 cells (2.0 × 10^5 cells) were stained with Rhod-2/AM or Rhod-4/AM (final concentration = 5 μM) for 30 min at 37 °C under 5% CO2. The cells were washed with PBS and were treated with 4 (final concentration = 2.5, 5, or 10 μM) in cell culture medium for 30 and 60 min at 37 °C under 5% CO2. To test the effect of celastrol and cisplatin in HeLa-S3 and A549 cells, the cells were incubated with celastrol (final concentration = 100 μM) and cisplatin (final concentration = 100 μM) for 2–6 h. After washing with PBS, the cells were observed via fluorescence microscopy (BZ-X800, Keyence) using a Greiner CELLview Petri dish (35 × 10 mm^2). Emission images were observed using a TRITC filter (excitation 540 nm, emission 605 nm).
(§5) Jurkat, HeLa-S3, A549, and IMR90 cells (8.0 × 10^4 cells) were incubated with CCCP or 2-APB for 1 h and then stained with Rhod-2/AM or Rhod-4/AM (final concentration = 5 μM) for 30 min at 37 °C under 5% CO2. The cells were washed with PBS and were treated with 4 (final concentration = 2.5, 5, or 10 μM) in PBS for 0–60 min at 37 °C in a microplate reader (ARVO, PerkinElmer). Excitation at 540 nm and emission at 590 nm were used for the measurement of Rhod-2/AM and Rhod-4/AM on the microplate reader.

[5] = system: Ca^2+ concentrations in mitochondria and cytosol in A549 cells; assay: Rhod-2/AM and Rhod-4/AM emission (mitochondrial and cytosolic Ca2+) in A549 cells; format: cell-based, human; conditions: 4 10 μM 1 h; celastrol 100 μM 2–6 h
Experimental: as §3, §4, §5

HeLa-S3 cells [6] = assay: Costaining of ER and mitochondria (ERTracker Red, MitoTracker Green), confocal microscopy, HeLa-S3 cells; format: cell-based, human; conditions: 4 5 μM, 5 and 10 min; celastrol 100 μM
Experimental: (§6) Jurkat, HeLa-S3, A549, and IMR90 cells (2.0 × 10^5 cells) were incubated with 4 (final concentration = 2.5 μM (for Jurkat), 5 μM (for HeLa-S3), 10 μM (for A549) and 5 μM and 50 μM (for IMR90)) in cell culture medium at 37 °C under 5% CO2. After incubation, MitoTracker Green (final concentration = 100 nM (for Jurkat) or 500 nM (for HeLa-S3, A549 and IMR90)), or ERTracker Red (final concentration = 500 nM (for Jurkat) or 1 μM (for HeLa-S3, A549 and IMR90)) were applied for 1 h under the same conditions. After washing with PBS, the cells were observed via confocal fluorescence microscopy (FluoView, FV-1000, Olympus). Excitation at 473 nm and emissions from 485 to 585 nm were used for detecting the MitoTracker Green. Excitation at 559 nm and emissions from 570 to 670 nm were used for detecting the ERTracker Red. Exposure time was 20 μs/pixel.

A549 cells [7] = assay: Costaining of ER and mitochondria (ERTracker Red, MitoTracker Green), confocal microscopy, A549 cells; format: cell-based, human; conditions: 4 10 μM, 15 min; celastrol 100 μM
Experimental: as §6

[8] = system: labile Fe^2+ in mitochondria of Jurkat cells; assay: Mito-FerroGreen fluorescence microscopy in Jurkat cells; format: cell-based; conditions: 4 2.5 μM 1 h; celastrol 5 μM, etoposide 5 μM, cisplatin 100 μM 24 h
Experimental: (§7) Jurkat cells (2.0 × 10^5 cells) were treated with 4 (2.5 μM), etoposide (5 μM), cisplatin (100 μM) and celastrol (5 μM) and stained with Mito-FerroGreen (a probe for labile Fe^2+ in mitochondria) (5 μM) and zinquin (a probe for intracellular Zn^2+) (25 μM). The cell images were observed via fluorescence microscopy.

[9] = system: intracellular Zn^2+ in Jurkat cells; assay: Zinquin fluorescence microscopy in Jurkat cells; format: cell-based; conditions: 4 2.5 μM 1 h; celastrol 5 μM, etoposide 5 μM, cisplatin 100 μM 24 h
Experimental: as §7

trypsin = trypsin (Sus scrofa, UniProt P00761); assay: Stability after treatment with trypsin (RP-HPLC); conditions: 10 μM, trypsin 5 U/mL, 10 mM HEPES pH 7.5, 1 h, 37 °C
Experimental: 4 and 5 (10 μM) were incubated with trypsin (5 U/mL) in 10 mM 2-[4-(2-hydroxyethyl)-1-piperazinyl]ethanesulfonic acid ((HEPES), pH = 7.5) for 1 h at 37 °C and then analyzed via RP-HPLC (CH3CN (0.1% TFA)/H2O (0.1% TFA) = 20/80 to 70/30 (30 min), 1.0 mL/min).

Jurkat cells [10] = assay: MTT assay of Jurkat cells treated with 4 or celastrol in the presence of inhibitors; format: cell-based; conditions: 4 2.5 μM 1 h; Z-VAD-fmk 15 μM, necrostatin-1 30 μM, 3-MA 10 μM, CCCP 40 μM, DIDS 75 or 100 μM, 2-APB 50 or 100 μM, RuRed 75 μM
Experimental: (a) Jurkat cells: Jurkat cells (2.0 × 10^5 cells/mL) in RPMI 1640 medium with 10% FBS were pretreated with the inhibitors (Z-VAD-fmk (final concentration = 15 μM), necrostatin-1 (final concentration = 30 μM), 3-MA (final concentration = 10 μM), and DIDS (75 or 100 μM)) for 3 h or pretreated with other inhibitors (CCCP (40 μM), FCCP (40 μM), 2-APB (50 or 100 μM) and RuRed (75 μM)) for 1 h under 5% CO2 at 37 °C. After incubation, 4 (final concentration = 2.5 μM) was added to the cell suspension, which was then incubated for 1 h at 37 °C. To test the effect of celastrol, the cells were pretreated with the aforementioned inhibitors and then incubated with celastrol (5 μM) for 24 h. MTT reagent (5 mg/mL) in PBS (10 μL) was added to the cells. After incubation at 37 °C for 4 h, a formazan lysis solution (10% sodium dodecyl sulfate (SDS) in 0.01 N HCl) (100 μL) was added, and the resultant solution was incubated overnight under the same conditions, followed by measurement of the absorbance at 570 nm using a microplate reader (ARVO, PerkinElmer).

HeLa-S3 cells [11] = assay: MTT assay of HeLa-S3 cells treated with 4 or celastrol in the presence of inhibitors; format: cell-based, human; conditions: 4 5 μM 1 h; Z-VAD-fmk 100 μM, necrostatin-1 100 μM, 3-MA 5 mM, CCCP 160 μM, DIDS 75 or 100 μM
Experimental: (b) HeLa-S3 cells: HeLa-S3 cells (2.0 × 10^5 cells/mL) in MEM medium with 10% FBS were pretreated with the inhibitors (3-MA (5 mM), and DIDS (75 or 100 μM)) for 3 h or pretreated with other inhibitors (Z-VAD-fmk (100 μM), necrostatin-1 (100 μM), CCCP (160 μM), and FCCP (80 μM)) for 1 h under 5% CO2 at 37 °C. After the incubation, 4 (final concentration = 5 μM) was added to the cell suspension, which was then incubated for 1 h at 37 °C. Subsequent procedures were the same as those used for the Jurkat cells.

A549 cells [12] = assay: MTT assay of A549 cells treated with 4 or celastrol in the presence of inhibitors; format: cell-based, human; conditions: 4 10 μM 1 h; Z-VAD-fmk 100 μM, necrostatin-1 100 μM, 3-MA 1 mM, CCCP 250 μM, DIDS 250 μM
Experimental: (c) A549 cells: A549 cells (2.0 × 10^5 cells/mL) in DMEM medium with 10% FBS were pretreated with the inhibitors (3-MA (1 mM), and DIDS (250 μM)) for 3 h or pretreated with other inhibitors (Z-VAD-fmk (100 μM), necrostatin-1 (100 μM), CCCP (250 μM), and FCCP (10 μM)) for 1 h under 5% CO2 at 37 °C. After incubation, 4 (final concentration = 10 μM) was added to the cell suspension, which was then incubated for 1 h at 37 °C. Subsequent procedures were the same as those used for the Jurkat cells.

Jurkat cells [13] = assay: Costaining of ER and mitochondria (ERTracker Red, MitoTracker Green), confocal microscopy, Jurkat cells; format: cell-based; conditions: 4 2.5 μM, CCCP 40 μM
Experimental: as §6

[14] = MTT, incubation 24 h (etoposide, cisplatin, celastrol)

Sequence of trypsin (P00761 9-231): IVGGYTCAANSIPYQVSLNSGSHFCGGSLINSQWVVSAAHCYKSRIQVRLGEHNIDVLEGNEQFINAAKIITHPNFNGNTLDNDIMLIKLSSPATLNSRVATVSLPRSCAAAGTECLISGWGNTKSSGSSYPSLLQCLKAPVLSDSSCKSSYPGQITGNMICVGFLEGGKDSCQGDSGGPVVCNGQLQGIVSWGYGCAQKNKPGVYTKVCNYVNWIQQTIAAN

SMILES: CC1=C(O)C(=O)C=C2C1=CC=C1[C@@]2(C)CC[C@@]2(C)[C@@H]3C[C@](C)(C(=O)O)CC[C@]3(C)CC[C@]12C [celastrol]
- EC50 (A549 cells [1]; Homo sapiens, A549, read-out: EC50 against A549 cells): 31 ± 2.2 µM
- EC50 (HeLa-S3 cells [2]; Homo sapiens, HeLa S3, 24 h): 22 ± 6 µM
- EC50 (IMR90 cells; Homo sapiens, IMR-90, 24 h): > 25 µM
- EC50 (Jurkat cells [3]; Homo sapiens, Jurkat, 24 h): 0.9 ± 0.1 µM
- Emission of Rhod-4/AM (cytosolic Ca2+) in HeLa-S3 cells ([4]; celastrol 100 μM 2–6 h): mitochondrial and cytoplasmic Ca^2+ overload
- Emission of Rhod-2/AM (mitochondrial Ca2+) in HeLa-S3 cells [4]: mitochondrial and cytoplasmic Ca^2+ overload
- Emission of Rhod-2/AM (mitochondrial Ca2+) in A549 cells [5]: mitochondrial Ca^2+ overload
- Emission of Rhod-4/AM (cytosolic Ca2+) in A549 cells [5]: negligibly changed
- Overlap of emission from MitoTracker Green and ERTracker Red in HeLa-S3 cells (HeLa-S3 cells [6]): weaker overlap
- Overlap of emission from MitoTracker Green and ERTracker Red in A549 cells (A549 cells [7]): weaker overlap
- Emission from Mito-FerroGreen (free Fe2+ in mitochondria) in Jurkat cells [8]: negligibly enhanced
- Emission from zinquin (intracellular free Zn2+) in Jurkat cells [9]: negligibly enhanced

SMILES: N.N.[Cl][Pt][Cl] [cisplatin]
- EC50 (A549 cells [1]; read-out: EC50 against A549 cells, MTT, incubation 24 h (etoposide, cisplatin, celastrol)): > 100 µM
- EC50 (HeLa-S3 cells [2]; [14]): 15 ± 3.4 µM
- EC50 (IMR90 cells; [14]): > 12.5 µM
- EC50 (Jurkat cells [3]; [14]): 5.8 ± 1.4 µM
- Emission of Rhod-2/AM (mitochondrial Ca2+) in HeLa-S3 cells [4]: weak enhancement
- Emission from Mito-FerroGreen (free Fe2+ in mitochondria) in Jurkat cells [8]: increases in both free-Fe^2+ and free-Zn^2+
- Emission from zinquin (intracellular free Zn2+) in Jurkat cells [9]: increases in both free-Fe^2+ and free-Zn^2+

SMILES: NCCCC[C@@H]1NC(=O)CNC(=O)[C@H](CCC(=O)NCCCCCCCCNC(=O)COc2cccc3c2C2c4c(OCC(=O)NCCCCCCCCNC(=O)CC[C@@H]5NC(=O)[C@H](CC6CCCCC6)NC(=O)[C@H](CCCCN)NC(=O)[C@H](CCCCN)NC(=O)[C@H](CCCCN)NC(=O)CNC5=O)cccc4C3c3cccc(OCC(=O)NCCCCCCCCNC(=O)CC[C@@H]4NC(=O)[C@H](CC5CCCCC5)NC(=O)[C@H](CCCCN)NC(=O)[C@H](CCCCN)NC(=O)[C@H](CCCCN)NC(=O)CNC4=O)c32)NC(=O)[C@H](CC2CCCCC2)NC(=O)[C@H](CCCCN)NC(=O)[C@H](CCCCN)NC1=O [compound 5] (I: cyclo(KKK[Cha]EG) / II: cyclo(KKK[Cha]EG) / III: cyclo(KKK[Cha]EG); linker I:5-II:5-III:5 via X1)
- EC50 (A549 cells [1]; read-out: EC50 against A549 cells, MTT, incubation 1 h at 37 °C): 9.5 ± 0.1 µM
- EC50 (HeLa-S3 cells [2]; MTT, incubation 1 h at 37 °C): 8.5 ± 0.4 µM
- EC50 (IMR90 cells; MTT, incubation 1 h at 37 °C): > 25 µM
- EC50 (Jurkat cells [3]; MTT, incubation 1 h at 37 °C): 1.6 ± 0.1 µM
- Stability against trypsin digestion (trypsin): negligible decomposition

SMILES: N#CC(C#N)=NNc1cccc(Cl)c1 [CCCP, carbonyl cyanide 3-chlorophenylhydrazone]
- Inhibition of 4-induced cell death in Jurkat cells (Jurkat cells [10]): considerably inhibited
- Inhibition of 4-induced cell death in HeLa-S3 cells (HeLa-S3 cells [11]): considerably inhibited
- Inhibition of 4-induced cell death in A549 cells (A549 cells [12]): considerably inhibited
- Inhibition of the 4-induced overlap of emission from MitoTracker Green and ERTracker Red in Jurkat cells (Jurkat cells [13]): considerably inhibited
